Data published in patent US20220296480A1, “TOPICAL COMPOSITIONS” (DSM IP ASSETS B.V., priority 2019, published 2022).

Tested on: A. brasiliensis
Experiment: Preservation challenge test of inoculated O/W emulsion (ISO 11930)
Format: cell-based, Aspergillus brasiliensis
Details: stored 22.5±2.5° C
Experimental: The evaluation of the preservation of a cosmetic formulation is based on inoculation of the formulation as outlined in table 1 with calibrated inocula (prepared from relevant strains of micro-organisms). Therefore, to each formulation 0.2 ml of calibrated inoculum is added to obtain between 1×10^2 cfu/ml and 1×10^6 cfu/ml or g of A. brasiliensis in the formulation (final concentration), which is mixed thoroughly into the formulation to ensure a homogeneous distribution of the inoculum. Then the respective containers containing the inoculated formulations are stored @22.5±2.5° C. At each specified sampling interval (initial (T0), 7 days (T7) and 28 days ([…])) 1 g of the inoculated formulation is taken and a dilution prepared to perform the enumeration of surviving micro-organisms. Then, for each time and each strain/strain mixture, the average log value is calculated which is represented in tables 2 and 3. (Procedure: see ISO 11930, chapter 5.2.-5.6.3.4. (page 3-13)) [table]

[1] = ERY 0.1 wt.-%, HG & EHG 0.9 wt.-%, time 0 days (T0)
[2] = ERY 0.1 wt.-%, HG & EHG 0.9 wt.-%, time 7 days (T7)
[3] = ERY 0.4 wt.-%, HG & EHG 0.6 wt.-%, time 0 days (T0)
[4] = ERY 0.4 wt.-%, HG & EHG 0.6 wt.-%, time 7 days (T7)

Compound	Average log [cfu/ml] [1]	Average log [cfu/ml] [2]	Average log [cfu/ml] [3]	Average log [cfu/ml] [4]	Average log [cfu/ml] (ERY 0.1 wt.-%, HG & EHG 0.9 wt.-%, time 28 days (T28))	Average log [cfu/ml] (ERY 0.4 wt.-%, HG & EHG 0.6 wt.-%, time 28 days (T28))
O=C(CO)[C@H](O)CO (racemic) [ERY, Erythrulose]	1.8 log [cfu/ml]	3.5 log [cfu/ml]	2.0 log [cfu/ml]	2.9 log [cfu/ml]		
CCCCC(CC)COCC(O)CO (stereo not shown) [EHG, Ethylhexyl glycerine]	4.6 log [cfu/ml]	4.2 log [cfu/ml]	4.6 log [cfu/ml]	4.4 log [cfu/ml]	4.5 log [cfu/ml]	4.6 log [cfu/ml]
